O=C(O)c1cccc([N+](=O)[O-])c1C(=O)O
Settings | solubility (mole fraction)
in 1,4-dioxane, 288.17 K | 0.0758
in 1,4-dioxane, 293.28 K | 0.0868
in 1,4-dioxane, 298.31 K | 0.097
in 1,4-dioxane, 303.29 K | 0.107
in 1,4-dioxane, 308.26 K | 0.116
in 1,4-dioxane, 313.2 K | 0.124
in 1,4-dioxane, 318.21 K | 0.132
in 1,4-dioxane, 323.29 K | 0.139
in 1,4-dioxane, 328.19 K | 0.146
in 1,4-dioxane, 333.18 K | 0.152
in 1,4-dioxane, 338.22 K | 0.158
in 1,4-dioxane, 343.16 K | 0.163
in 1,4-dioxane, 348.23 K | 0.167
in 1,4-dioxane, 353.32 K | 0.171
in THF, 278.28 K | 0.203
in THF, 283.17 K | 0.204
in THF, 288.16 K | 0.204
in THF, 293.21 K | 0.205
in THF, 298.29 K | 0.206
in THF, 303.28 K | 0.207
in THF, 308.19 K | 0.208
in THF, 313.23 K | 0.209
in THF, 318.24 K | 0.21
in THF, 323.16 K | 0.211
in THF, 328.19 K | 0.213
in THF, 333.17 K | 0.214
in acetone, 278.16 K | 0.0525
in acetone, 283.18 K | 0.0541
in acetone, 288.27 K | 0.056
in acetone, 293.33 K | 0.0582
in acetone, 298.24 K | 0.0604
in acetone, 303.19 K | 0.0629
in acetone, 308.32 K | 0.0657
in acetone, 313.16 K | 0.0685
in acetone, 318.2 K | 0.0717
in ethyl acetate, 283.2 K | 0.00793
in ethyl acetate, 288.26 K | 0.00847
in ethyl acetate, 293.28 K | 0.00902
in ethyl acetate, 298.19 K | 0.00958
in ethyl acetate, 303.21 K | 0.0102
in ethyl acetate, 308.3 K | 0.0109
in ethyl acetate, 313.16 K | 0.0116
in ethyl acetate, 318.22 K | 0.0124
in ethyl acetate, 323.16 K | 0.0134
in ethyl acetate, 328.23 K | 0.0144
in ethyl acetate, 333.17 K | 0.0156
in ethyl formate, 283.17 K | 0.00268
in ethyl formate, 288.18 K | 0.00287
in ethyl formate, 293.21 K | 0.00309
in ethyl formate, 298.26 K | 0.00335
in ethyl formate, 303.16 K | 0.00363
in ethyl formate, 308.19 K | 0.00396
in ethyl formate, 313.27 K | 0.00433
in ethyl formate, 318.25 K | 0.00473
in ethyl formate, 323.29 K | 0.00517
in methyl acetate, 278.17 K | 0.0334
in methyl acetate, 283.26 K | 0.0343
in methyl acetate, 288.27 K | 0.0353
in methyl acetate, 293.21 K | 0.0365
in methyl acetate, 298.24 K | 0.0378
in methyl acetate, 303.16 K | 0.0392
in methyl acetate, 308.22 K | 0.0407
in methyl acetate, 313.28 K | 0.0422
in methyl acetate, 318.17 K | 0.0437
in methyl acetate, 323.19 K | 0.0452
in n-butyl acetate, 283.18 K | 0.00243
in n-butyl acetate, 288.16 K | 0.00297
in n-butyl acetate, 293.21 K | 0.00353
in n-butyl acetate, 298.19 K | 0.0041
in n-butyl acetate, 303.22 K | 0.0047
in n-butyl acetate, 308.26 K | 0.00531
in n-butyl acetate, 313.27 K | 0.00594
in n-butyl acetate, 318.18 K | 0.00657
in n-butyl acetate, 323.22 K | 0.00724
in n-butyl acetate, 328.24 K | 0.00792
in n-butyl acetate, 333.19 K | 0.0086
in n-butyl acetate, 338.28 K | 0.00933
in n-butyl acetate, 343.25 K | 0.0101
in n-butyl acetate, 348.24 K | 0.0108
in n-butyl acetate, 353.26 K | 0.0116
in water, 283.18 K | 0.00115
in water, 288.26 K | 0.00129
in water, 293.27 K | 0.00152
in water, 298.21 K | 0.00179
in water, 303.19 K | 0.00211
in water, 308.22 K | 0.0025
in water, 313.19 K | 0.003
in water, 318.29 K | 0.00367
in water, 323.18 K | 0.00451
in water, 328.31 K | 0.00569
in water, 333.22 K | 0.00724
in water, 338.18 K | 0.00943
in water, 343.17 K | 0.0126
in water, 348.16 K | 0.0172
in water, 353.28 K | 0.0241

— BigSolDB 2.1
